As usually defined, the EC50 is the concentration at which the effect is half-maximal.

For assay [1], the target named is T1, human GLP-1 receptor (Homo sapiens, UniProt P43220).
T1 construct: host or cells: CHO cells
Briefly: DiscoveRx LeadHunter cellular assay, cAMP stimulation, GLP-1 receptor in CHO cells. Particulars: human GLP-1 receptor in CHO cells (DiscoveRx); read-out: EC50 cAMP GLP-1 R. Format: cell-based.
Method: (§1) A further series of cellular assays was carried out with standard cellular assays (DiscoveRx, LeadHunter assays) using readout of cAMP stimulation or arrestin activation. Compounds were weighed precisely in an amount of about 1 mg and shipped to DiscoveRx for dilution and assay.

Assay [2] has as its target T2, human glucagon receptor (Homo sapiens, UniProt P47871).
T2 construct: host or cells: CHO cells
Put plainly: DiscoveRx LeadHunter cellular assay, cAMP stimulation, glucagon receptor in CHO cells. It is filed as cell-based.
Method: as §1

T1 sequence (P43220 24-463): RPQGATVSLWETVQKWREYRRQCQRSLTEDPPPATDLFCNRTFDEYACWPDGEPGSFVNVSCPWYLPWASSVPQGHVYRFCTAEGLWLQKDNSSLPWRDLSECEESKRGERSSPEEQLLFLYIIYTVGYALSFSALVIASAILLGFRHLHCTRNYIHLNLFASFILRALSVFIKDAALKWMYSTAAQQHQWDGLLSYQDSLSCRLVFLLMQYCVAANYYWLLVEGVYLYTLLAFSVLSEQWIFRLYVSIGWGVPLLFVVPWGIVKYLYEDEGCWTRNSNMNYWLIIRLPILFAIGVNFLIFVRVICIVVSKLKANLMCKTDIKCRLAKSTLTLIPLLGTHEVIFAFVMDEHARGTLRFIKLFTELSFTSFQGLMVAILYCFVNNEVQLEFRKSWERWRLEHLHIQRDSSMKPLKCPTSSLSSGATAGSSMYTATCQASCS
T2 sequence (P47871 26-477): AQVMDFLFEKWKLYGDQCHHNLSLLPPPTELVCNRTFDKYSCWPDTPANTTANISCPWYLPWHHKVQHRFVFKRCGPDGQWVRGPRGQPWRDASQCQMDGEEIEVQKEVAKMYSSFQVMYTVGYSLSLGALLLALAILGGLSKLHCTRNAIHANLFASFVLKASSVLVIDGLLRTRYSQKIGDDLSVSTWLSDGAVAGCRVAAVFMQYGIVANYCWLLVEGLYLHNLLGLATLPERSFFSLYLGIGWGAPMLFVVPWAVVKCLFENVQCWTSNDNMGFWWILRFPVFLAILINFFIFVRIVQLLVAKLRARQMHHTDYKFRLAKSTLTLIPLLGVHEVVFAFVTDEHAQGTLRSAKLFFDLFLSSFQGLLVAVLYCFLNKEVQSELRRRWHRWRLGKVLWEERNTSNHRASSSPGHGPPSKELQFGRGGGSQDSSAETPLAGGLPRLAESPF

For `CCCCCCCCCCCCCCO[C@@H]1O[C@H](CO[C@H]2O[C@H](C(=O)NCCCC[C@H](N)C(=O)NCCCC[C@H](NC(=O)[C@@H](NC(=O)[C@H](Cc3ccccc3)NC(=O)[C@H](CCC(=O)O)NC(=O)[C@@H]3CCCCNC(=O)CC[C@H](NC(=O)[C@H](CC(=O)O)NC(=O)[C@H](CC(C)C)NC(=O)[C@H](Cc4ccc(O)cc4)NC(=O)[C@H](CCCCN)NC(=O)[C@H](CO)NC(=O)[C@H](Cc4ccc(O)cc4)NC(=O)[C@H](CC(=O)O)NC(=O)[C@H](CO)NC(=O)[C@@H](NC(=O)[C@H](Cc4ccccc4)NC(=O)[C@@H](NC(=O)CNC(=O)[C@H](CCC(N)=O)NC(=O)C(C)(C)NC(=O)[C@@H](N)Cc4c[nH]cn4)[C@@H](C)O)[C@@H](C)O)C(=O)N[C@@H](CCC(N)=O)C(=O)N[C@@H](C)C(=O)N[C@@H](C)C(=O)N3)[C@@H](C)CC)C(=O)N[C@@H](Cc3c[nH]c4ccccc34)C(=O)N[C@@H](CC(C)C)C(=O)N[C@@H](CC(C)C)C(=O)N[C@@H](CCC(N)=O)C(=O)N[C@H](C(=O)O)[C@@H](C)O)[C@H](O)[C@H](O)[C@H]2O)[C@@H](O)[C@H](O)[C@H]1O` [EU-A1612], the 50% effective concentration (EC50) in assay [1] worked out at 0.011 nM; in assay [2] it was 0.059 nM.

For `CCCCCCCCCCCCO[C@@H]1O[C@H](CO[C@H]2O[C@H](C(=O)N[C@@H](CCC(=O)NCCCC[C@H](NC(=O)[C@@H](NC(=O)[C@H](Cc3ccccc3)NC(=O)[C@H](CCC(=O)O)NC(=O)[C@@H]3CCCCNC(=O)CC[C@H](NC(=O)[C@H](CC(=O)O)NC(=O)[C@H](CC(C)C)NC(=O)[C@H](Cc4ccc(O)cc4)NC(=O)[C@H](CCCCN)NC(=O)[C@H](CO)NC(=O)[C@H](Cc4ccc(O)cc4)NC(=O)[C@H](CC(=O)O)NC(=O)[C@H](CO)NC(=O)[C@@H](NC(=O)[C@H](Cc4ccccc4)NC(=O)[C@@H](NC(=O)CNC(=O)[C@H](CCC(N)=O)NC(=O)C(C)(C)NC(=O)[C@@H](N)Cc4c[nH]cn4)[C@@H](C)O)[C@@H](C)O)C(=O)N[C@@H](CCC(N)=O)C(=O)N[C@@H](C)C(=O)N[C@@H](C)C(=O)N3)[C@@H](C)CC)C(=O)N[C@@H](Cc3c[nH]c4ccccc34)C(=O)N[C@@H](CC(C)C)C(=O)N[C@@H](CC(C)C)C(=O)N[C@@H](CCC(N)=O)C(=O)N[C@H](C(=O)O)[C@@H](C)O)C(=O)O)[C@H](O)[C@H](O)[C@H]2O)[C@@H](O)[C@H](O)[C@H]1O` [EU-A1616], the EC50 stood at 0.079 nM in assay [1] and 0.204 nM in assay [2].

As to `CCCCCCCCCCCCCCO[C@@H]1O[C@H](CO[C@H]2O[C@H](C(=O)N[C@@H](CCC(=O)NCCCC[C@H](NC(=O)[C@@H](NC(=O)[C@H](Cc3ccccc3)NC(=O)[C@H](CCC(=O)O)NC(=O)[C@@H]3CCCCNC(=O)CC[C@H](NC(=O)[C@H](CC(=O)O)NC(=O)[C@H](CC(C)C)NC(=O)[C@H](Cc4ccc(O)cc4)NC(=O)[C@H](CCCCN)NC(=O)[C@H](CO)NC(=O)[C@H](Cc4ccc(O)cc4)NC(=O)[C@H](CC(=O)O)NC(=O)[C@H](CO)NC(=O)[C@@H](NC(=O)[C@H](Cc4ccccc4)NC(=O)[C@@H](NC(=O)CNC(=O)[C@H](CCC(N)=O)NC(=O)C(C)(C)NC(=O)[C@@H](N)Cc4c[nH]cn4)[C@@H](C)O)[C@@H](C)O)C(=O)N[C@@H](CCC(N)=O)C(=O)N[C@@H](C)C(=O)N[C@@H](C)C(=O)N3)[C@@H](C)CC)C(=O)N[C@@H](Cc3c[nH]c4ccccc34)C(=O)N[C@@H](CC(C)C)C(=O)N[C@@H](CC(C)C)C(=O)N[C@@H](CCC(N)=O)C(=O)N[C@H](C(=O)O)[C@@H](C)O)C(=O)O)[C@H](O)[C@H](O)[C@H]2O)[C@@H](O)[C@H](O)[C@H]1O` [EU-A1617], the EC50 in assay [1] worked out at 0.119 nM; in assay [2], 0.598 nM.

For `CCCCCCCCCCCCO[C@@H]1O[C@H](CO[C@H]2O[C@H](C(=O)N[C@@H](CCC(=O)N[C@@H](CCC(=O)NCCCC[C@H](NC(=O)[C@@H](NC(=O)[C@H](Cc3ccccc3)NC(=O)[C@H](CCC(=O)O)NC(=O)[C@@H]3CCCCNC(=O)CC[C@H](NC(=O)[C@H](CC(=O)O)NC(=O)[C@H](CC(C)C)NC(=O)[C@H](Cc4ccc(O)cc4)NC(=O)[C@H](CCCCN)NC(=O)[C@H](CO)NC(=O)[C@H](Cc4ccc(O)cc4)NC(=O)[C@H](CC(=O)O)NC(=O)[C@H](CO)NC(=O)[C@@H](NC(=O)[C@H](Cc4ccccc4)NC(=O)[C@@H](NC(=O)CNC(=O)[C@H](CCC(N)=O)NC(=O)C(C)(C)NC(=O)[C@@H](N)Cc4c[nH]cn4)[C@@H](C)O)[C@@H](C)O)C(=O)N[C@@H](CCC(N)=O)C(=O)N[C@@H](C)C(=O)N[C@@H](C)C(=O)N3)[C@@H](C)CC)C(=O)N[C@@H](Cc3c[nH]c4ccccc34)C(=O)N[C@@H](CC(C)C)C(=O)N[C@@H](CC(C)C)C(=O)N[C@@H](CCC(N)=O)C(=O)N[C@H](C(=O)O)[C@@H](C)O)C(=O)O)C(=O)O)[C@H](O)[C@H](O)[C@H]2O)[C@@H](O)[C@H](O)[C@H]1O` [EU-A1620], the values for the EC50 in assay [1] and in assay [2] were 0.051 nM and 0.24 nM, respectively.

As to `CCCCCCCCCCCCCCO[C@@H]1O[C@H](CO[C@H]2O[C@H](C(=O)N[C@@H](CCC(=O)N[C@@H](CCC(=O)NCCCC[C@H](NC(=O)[C@@H](NC(=O)[C@H](Cc3ccccc3)NC(=O)[C@H](CCC(=O)O)NC(=O)[C@@H]3CCCCNC(=O)CC[C@H](NC(=O)[C@H](CC(=O)O)NC(=O)[C@H](CC(C)C)NC(=O)[C@H](Cc4ccc(O)cc4)NC(=O)[C@H](CCCCN)NC(=O)[C@H](CO)NC(=O)[C@H](Cc4ccc(O)cc4)NC(=O)[C@H](CC(=O)O)NC(=O)[C@H](CO)NC(=O)[C@@H](NC(=O)[C@H](Cc4ccccc4)NC(=O)[C@@H](NC(=O)CNC(=O)[C@H](CCC(N)=O)NC(=O)C(C)(C)NC(=O)[C@@H](N)Cc4c[nH]cn4)[C@@H](C)O)[C@@H](C)O)C(=O)N[C@@H](CCC(N)=O)C(=O)N[C@@H](C)C(=O)N[C@@H](C)C(=O)N3)[C@@H](C)CC)C(=O)N[C@@H](Cc3c[nH]c4ccccc34)C(=O)N[C@@H](CC(C)C)C(=O)N[C@@H](CC(C)C)C(=O)N[C@@H](CCC(N)=O)C(=O)N[C@H](C(=O)O)[C@@H](C)O)C(=O)O)C(=O)O)[C@H](O)[C@H](O)[C@H]2O)[C@@H](O)[C@H](O)[C@H]1O` [EU-A1622], the concentration for a half-maximal effect (EC50) is 0.774 nM in assay [1] and 2.08 nM in assay [2].

Take `CCCCCCCCCCCCCCO[C@@H]1O[C@H](CO[C@H]2O[C@H](C(=O)N[C@@H](CCC(=O)N[C@@H](CCC(=O)NCCCC[C@H](NC(=O)[C@@H](NC(=O)[C@H](Cc3ccccc3)NC(=O)[C@H](CCC(=O)O)NC(=O)[C@@H]3CCCCNC(=O)CC[C@H](NC(=O)[C@H](CC(=O)O)NC(=O)[C@H](CC(C)C)NC(=O)[C@H](Cc4ccc(O)cc4)NC(=O)[C@H](CCCCN)NC(=O)[C@H](CO)NC(=O)[C@H](Cc4ccc(O)cc4)NC(=O)[C@H](CC(=O)O)NC(=O)[C@H](CO)NC(=O)[C@@H](NC(=O)[C@H](Cc4ccccc4)NC(=O)[C@@H](NC(=O)CNC(=O)[C@H](CCC(N)=O)NC(=O)C(C)(C)NC(=O)[C@@H](N)Cc4c[nH]cn4)[C@@H](C)O)[C@@H](C)O)C(=O)N[C@@H](CCC(N)=O)C(=O)N[C@@H](C)C(=O)N[C@@H](C)C(=O)N3)[C@@H](C)CC)C(=O)N[C@@H](Cc3c[nH]c4ccccc34)C(=O)N[C@@H](CC(C)C)C(=O)N[C@@H](CC(C)C)C(=O)N[C@@H](CCC(N)=O)C(=O)N[C@H](C(N)=O)[C@@H](C)O)C(=O)O)C(=O)O)[C@H](O)[C@H](O)[C@H]2O)[C@@H](O)[C@H](O)[C@H]1O` [EU-A1627]: the 50% effective concentration (EC50) in assay [1] amounted to 0.304 nM; in assay [2] it was 0.705 nM.

With `CCCCCCCCCCCCO[C@@H]1O[C@H](C(=O)NCCCC[C@H](NC(=O)[C@@H](NC(=O)[C@H](Cc2ccccc2)NC(=O)[C@H](CCC(=O)O)NC(=O)[C@@H]2CCCCNC(=O)CC[C@H](NC(=O)[C@H](CC(=O)O)NC(=O)[C@H](CC(C)C)NC(=O)[C@H](Cc3ccc(O)cc3)NC(=O)[C@H](CCCCN)NC(=O)[C@H](CO)NC(=O)[C@H](Cc3ccc(O)cc3)NC(=O)[C@H](CC(=O)O)NC(=O)[C@H](CO)NC(=O)[C@@H](NC(=O)[C@H](Cc3ccccc3)NC(=O)[C@@H](NC(=O)CNC(=O)[C@H](CCC(N)=O)NC(=O)C(C)(C)NC(=O)[C@@H](N)Cc3c[nH]cn3)[C@@H](C)O)[C@@H](C)O)C(=O)N[C@@H](CCC(N)=O)C(=O)N[C@@H](C)C(=O)N[C@@H](C)C(=O)N2)[C@@H](C)CC)C(=O)N[C@@H](Cc2c[nH]c3ccccc23)C(=O)N[C@@H](CC(C)C)C(=O)N[C@@H](CC(C)C)C(=O)N[C@@H](CCC(N)=O)C(=O)N[C@H](C(=O)NCCOCCOCCOCCOCCC(=O)O)[C@@H](C)O)[C@@H](O)[C@H](O)[C@H]1O` [EU-A1633], the results for the EC50 in assay [1] and in assay [2] were 0.008 nM and 0.053 nM, respectively.

On to `CCCCCCCCCCCCCCO[C@@H]1O[C@H](C(=O)NCCCC[C@H](NC(=O)[C@@H](NC(=O)[C@H](Cc2ccccc2)NC(=O)[C@H](CCC(=O)O)NC(=O)[C@@H]2CCCCNC(=O)CC[C@H](NC(=O)[C@H](CC(=O)O)NC(=O)[C@H](CC(C)C)NC(=O)[C@H](Cc3ccc(O)cc3)NC(=O)[C@H](CCCCN)NC(=O)[C@H](CO)NC(=O)[C@H](Cc3ccc(O)cc3)NC(=O)[C@H](CC(=O)O)NC(=O)[C@H](CO)NC(=O)[C@@H](NC(=O)[C@H](Cc3ccccc3)NC(=O)[C@@H](NC(=O)CNC(=O)[C@H](CCC(N)=O)NC(=O)C(C)(C)NC(=O)[C@@H](N)Cc3c[nH]cn3)[C@@H](C)O)[C@@H](C)O)C(=O)N[C@@H](CCC(N)=O)C(=O)N[C@@H](C)C(=O)N[C@@H](C)C(=O)N2)[C@@H](C)CC)C(=O)N[C@@H](Cc2c[nH]c3ccccc23)C(=O)N[C@@H](CC(C)C)C(=O)N[C@@H](CC(C)C)C(=O)N[C@@H](CCC(N)=O)C(=O)N[C@H](C(=O)NCCOCCOCCOCCOCCC(=O)O)[C@@H](C)O)[C@@H](O)[C@H](O)[C@H]1O` [EU-A1634], for which the EC50 was determined as 0.052 nM in assay [1] and 0.493 nM in assay [2].
